Where two headings read alike, the source gives them in different places.
What was measured:
[1] = prior art form of WO 03/016305; cited from earlier work
[2] = prior art form of WO 03/016305; cited from earlier work; remark: listed apart in the source
[3] = Hygroscopicity of crystalline forms of sunitinib malate; format: physicochemical; conditions: crystalline solid form
[4] = Stability (thermodynamic / polymorphic) of crystalline forms of sunitinib malate; format: physicochemical; conditions: crystalline solid form

SMILES	polymorphic conversion [1]	thermodynamic stability [1]	hygroscopicity [2]	hygroscopicity [3]	stability [4]
CCN(CC)CCNC(=O)c1c(C)[nH]c(/C=C2\C(=O)Nc3ccc(F)cc32)c1C.O=C(O)CC(O)C(=O)O [Form II, (Z)—N-[2-(diethylamino)ethyl]-5-(5-fluoro-2-oxo-2,3-dihydro-1H-indole-3-ylidenemethyl)-2,4-dimethyl-1H-pyrrole-3-carboxamide 2(S)-hydroxybutanedioic acid]	readily convert to form I	thermodynamically unstable	hygroscopic	–	–
CCN(CC)CCNC(=O)c1c(C)[nH]c(/C=C2\C(=O)Nc3ccc(F)cc32)c1C.O=C(O)CC(O)C(=O)O [form III, (Z)—N-[2-(diethylamino)ethyl]-5-(5-fluoro-2-oxo-2,3-dihydro-1H-indole-3-ylidenemethyl)-2,4-dimethyl-1H-pyrrole-3-carboxamide 2(S)-hydroxybutanedioic acid]	–	–	–	non-hygroscopic	stable

From patent publication US20110112164A1, “NOVEL POLYMORPHS AND PROCESSES FOR THEIR PREPARATION” (Generics (UK) Limited, priority 2008, published 2011)
